Measurements published in patent US20050186137A1, “Novelty-induced hypophagia-based assays for identifying agents to treat anxiety and depression” (priority 2003, published 2005).

Assays:
[1] = tested on: BALB/cJ mice; test: Prepulse inhibition of startle; type: in vivo, mouse
Experimental: For chronic fluoxetine studies in BALB/cJ mice, 60 male BALB/cJ mice were tested in the OF for 30 min on days 19 or 20 of chronic fluoxetine treatment. Mice were then pretested and tested in the modified FST on days 21 and 22, respectively. Animals were then allowed to adapt to being singly housed, and were trained for NIH on days 25-27. Home cage and novel cage testing occurred on days 28 and 29, respectively. Mice were then assessed for PPI on days 34 or 35.
Studies of subchronic fluoxetine were conducted using separate groups of 60 male BALB/cJ mice to prevent fluoxetine treatment from exceeding one week. One group was tested in the OF after one day of subchronic fluoxetine treatment. Mice were then pretested after 6 and tested after 7 days of subchronic fluoxetine treatment in the modified FST. A second group of BALB/cJ mice began fluoxetine treatment after being singly housed. They were then tested in the NIH test after 4 (home) and 5 (novel) days of subchronic fluoxetine treatment. A third group was tested for PPI after one or two days of subchronic fluoxetine treatment.
Prepulse Inhibition: Startle experiments were performed in MED-Associates chambers. Nonrestrictive Plexiglas cylinders 5 cm in diameter rested on a Plexiglas platform with a transducer amplifier. The sound-dampening isolation chambers were ventilated, well-lit, and equipped with an acoustic stimulator. Data acquisition was performed using Med-Associates software.
Five different trial types were presented in the test session: a 40-msec broadband 120 dB burst (PULSE ALONE trial); three different PREPULSE+PULSE trials in which 20-msec long 3 dB (pp3), 6 dB (pp6), or 12 dB (pp12) stimuli above a 70 dB background preceded the 120 dB pulse by 100 msec (onset to onset), and a NO STIMULUS trial, in which only the background noise was presented. Trials were presented in a pseudo-random order. A variable interval of 10-20 seconds separated trials.
The test session consisted of 62 test trials. The session began with a 10 min acclimation period, followed by four consecutive blocks of test trials. Blocks one and four consisted of six consecutive PULSE ALONE trials, while blocks two and three contained six PULSE ALONE trials, five pp3+p120 trials, five pp6+p120 trials, five pp12+p120 trials, and four NO STIMULUS trials. Analyses were performed using average values for each trial type.
Prepulse Inhibition: PPI was calculated as the averaged startle magnitude caused by PULSE ALONE trials from blocks two and three, minus the averaged startle magnitude caused by the prepulse-pulse trials, all divided by the averaged PULSE ALONE values from blocks two and three. The resulting value was multiplied by 100 and presented as a percent PPI value. Four-factor ANOVAs with fluoxetine and RU24969 as between subjects factors and prepulse intensity and block as within subjects variables assessed percent PPI levels. Interactions were resolved using post-hoc ANOVAs with adjusted p-values, and/or Newman-Keuls post-hoc tests.

[2] = tested on: animals; details: animals without drug withdrawal or chronic stress; low dose fluoxetine; cited from earlier work

Row | SMILES | PPI ([1]; 10 mg/kg RU24969 in mice treated subchronically with fluoxetine (1-2 days)) | Startle reactivity (blocks two and three) ([1]; 10 mg/kg/day RU24969, chronic fluoxetine study) | PPI ([1]; acute 10 mg/kg RU24969 i.p. in control mice (no fluoxetine), 3, 6, 12 dB prepulse intensities) | startle reactivity in the second and third blocks ([1]; subchronic fluoxetine study (1-2 days), 10 mg/kg RU24969) | intracranial self-stimulation reward thresholds [2]
1 | COc1ccc2[nH]cc(C3=CCNCC3)c2c1 [RU24969, 5-methoxy-3(1,2,3,6)tetrahydropyridin-4-yl-1H-indole] | disrupted PPI at each prepulse intensity | increased overall | disrupted PPI in control mice | no effects | 
2 | CNCCCN1c2ccccc2CCc2ccccc21 [desmethylimipramine] |  |  |  |  | no effect
